What all share (type): cell-based, human
The subject of one assay is islet-like clusters. Briefly: CDK inhibitor III treatment of islet-like clusters in suspension (Stage 7): PCR and dithizone staining (Example 4). As to conditions: 1 μm. The procedure:
The medium was changed daily.
After stage 6, the cells were treated for 5 mins at room temperature with 1× accutase (Sigma, Mo.). The accutase was removed, and DMEM/12+1% B27 was added to the cells. The attached cells were removed using a cell scarper and gently resuspended and passed through a 40 μm cell strainer. The cells retained on the strainer were removed by rinsing in basal media and cultured in suspension on Ultra-Low culture plates (Catalogue#3471, Corning, Ma). […] Cells treated with vehicle were included as controls. Samples were collected at days 7 through 10 for PCR analysis and dithizone staining. The cells cultured in suspension according to the methods outlined in this example assumed a morphology similar to pancreatic islet clusters.

In assay [1] the test system is insulin-producing cells. Description: FACS analysis of insulin producing cells (Example 5). As to conditions: 1 μM for 5 days. The procedure:
DMEM/F12+1% B27 for seven days (Stage 6), then • g. Treatment with Accutase for 5 minutes, followed by scraping to remove any remaining attached cells. The cell suspension was then passed through a 40 μm cell strainer. The cells retained on the strainer were removed by rinsing in basal media and cultured in suspension on Ultra-Low culture plates in DMEM-High Glucose (Catalogue#11995-073, Invitrogen, Ca)+1% B27+20 ng/ml of activin A (AA) 1 μm of CDK inhibitor III (Catalog#217714, Calbiochem, Ca) for 5 days (Stage 7).
Islet-like clusters were dispersed into single cells using TrypLE Express (Invitrogen, Carlsbad, Calif.) and washed in cold PBS. For fixation, the cells were resuspended in 200-300 μl Cytofix/Cytoperm Buffer (BD 554722, BD, Ca) and incubated for 30 min at 4° C. Cells were washed two times in 1 ml Perm/Wash Buffer Solution (BD 554723) and resuspended in 100 μl staining/blocking solution containing 2% normal goat serum in Perm/Wash buffer. For flow cytometric analysis, cells were stained with the following primary antibodies: Anti-Insulin (Rabbit mAb, Cell Signaling No. C279; 1:100 dilution); Anti-Glucagon (Mouse Mab, Sigma No. G2654, 1:100); Anti-Synaptophysin (Rabbit Polyclonal antibody, DakoCytomation No A0010, 1:50). […] Cells were washed at least once in Perm/Wash buffer and analyzed using BD FACSArray. […]
In general terms: Flow cytometry measures light scatter and fluorescence of single cells or particles in a stream.

The subject of assay [2] is insulin-producing cells. Description: Kinetics of CDK inhibitor-induced MAFA expression, PCR (Example 6). The procedure: DMEM/F12+1% B27 for seven days (Stage 6), then • g. Treatment with Accutase for 5 minutes, followed by scraping to remove any remaining attached cells. The cell suspension was then passed through a 40 μm cell strainer. The cells retained on the strainer were removed by rinsing in basal media and cultured in suspension on Ultra-Low culture plates in DMEM-High Glucose (Catalogue#11995-073, Invitrogen, Ca)+1% B27+20 ng/ml of activin A (AA) 2 μm of CDK inhibitor III (Catalog#217714, Calbiochem, Ca) for 1-8 days (Stage 7).
Samples were collected for PCR analysis at days 1, 2, 3, and 4.

[3] abbreviates: Stage 7, days 7 through 10, PCR.
Where [4] appears, read: 2 μm, days 1-4 of stage 7, increased as a function of time.
The mark [5] stands for this setting: four days after removal of the compound.

This note sets out measurements from patent publication US9234178B2, “Differentiation of human pluripotent stem cells” (Janssen Biotech, Inc., priority 2008, dated 2016).

For `Nc1nc(Nc2ccc(S(N)(=O)=O)cc2)nn1C(=S)Nc1c(F)cccc1F` [PubChem ID#5330812, 5-Amino-3-((4-(aminosulfonyl)phenyl)amino)-N-(2,6-difluorophenyl)-1H-1,2,4-triazole-1-carbothioamide], in the assay on islet-like clusters (setting [3]), the “expression of markers associated with the pancreatic endocrine lineage” value is “increased the expression” and the “expression of the pro-insulin transcription factor MAFA” value is “increased the expression”. The “dithazone (DTZ) staining of clusters” value with islet-like clusters (Stage 7, versus untreated clusters) is listed as “more reddish staining pattern”. For the same molecule, the “percentage of poly hormonal (insulin and glucagon positive) cells” value with insulin-producing cells [1] (Stage 7, versus vehicle) is recorded as “decreased”. Also, the “single hormonal insulin positive cells” value with insulin-producing cells [1] (Stage 7, vehicle 3%) is listed as 8%. Moreover, in the assay on insulin-producing cells [2] (setting [4]), the MAFA expression result is recorded as “significant increase” and the insulin expression result is “significant increase”. Moreover, in the assay on insulin-producing cells [2] (setting [5]), the “MAFA expression after removal of CDK inhibitor” value was “significant drop” and the “insulin expression after removal of CDK inhibitor” value was “significant drop”.
